Assay results: ChEMBL document CHEMBL5614460, “Discovery of novel substituted pyridine carboxamide derivatives as potent allosteric SHP2 inhibitors” (Eur J Med Chem, 2024)

biological target: T1, Tyrosine-protein phosphatase non-receptor type 11 (Homo sapiens) (UniProt Q06124); assay: Allosteric inhibition of N-terminal His-tagged human recombinant SHP2 extracted from Escherichia coli using DiFMUP as substrate at 10 uM preincubated with compound for 60 mins followed by substrate addition and measured after 30 mins by fluorescence based microplate reader analysis relative to control; settings: time 90.0 min
T1 sequence (whole entry): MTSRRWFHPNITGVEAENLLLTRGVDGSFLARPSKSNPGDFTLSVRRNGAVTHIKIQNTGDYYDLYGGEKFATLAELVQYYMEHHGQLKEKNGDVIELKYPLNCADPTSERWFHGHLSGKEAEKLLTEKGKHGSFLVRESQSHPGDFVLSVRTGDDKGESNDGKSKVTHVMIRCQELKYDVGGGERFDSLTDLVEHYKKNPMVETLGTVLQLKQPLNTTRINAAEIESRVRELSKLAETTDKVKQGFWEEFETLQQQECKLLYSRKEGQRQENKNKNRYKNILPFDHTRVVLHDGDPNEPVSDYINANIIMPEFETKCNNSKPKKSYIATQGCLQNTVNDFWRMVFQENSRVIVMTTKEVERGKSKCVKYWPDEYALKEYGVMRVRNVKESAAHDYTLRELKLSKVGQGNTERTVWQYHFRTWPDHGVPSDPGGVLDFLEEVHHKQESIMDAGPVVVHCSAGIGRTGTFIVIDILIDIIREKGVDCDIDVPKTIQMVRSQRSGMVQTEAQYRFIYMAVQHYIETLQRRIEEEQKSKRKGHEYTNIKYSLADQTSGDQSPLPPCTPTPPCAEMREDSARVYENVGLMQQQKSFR

First: Nc1nc(N2CCN(C(=O)C3(N)CCC3)CC2)cnc1Sc1ccnc(N)c1Cl
Second: Nc1nc(N2CCN(C(=O)C3(N)CCCC3)CC2)cnc1Sc1ccnc(N)c1Cl
The inhibition of the first is lower: 44.2% for the first, 95.2% for the second.

Going from `Nc1nc(N2CCN(C(=O)[C@H]3CCCN3)CC2)cnc1Sc1ccnc(N)c1Cl` to `Nc1nc(N2CCN(C(=O)[C@@H]3CCCN3)CC2)cnc1Sc1ccnc(N)c1Cl`, the inhibition falls from 50.2% to 48.8%.

First: NCC(=O)N1CCN(c2cnc(Sc3ccnc(N)c3Cl)c(N)n2)CC1
Second: C[C@H](N)C(=O)N1CCN(c2cnc(Sc3ccnc(N)c3Cl)c(N)n2)CC1
The inhibition of the first is higher: 58.8% for the first, 13.2% for the second.

First: Nc1nc(N2CCN(C(=O)C3(N)CCCCC3)CC2)cnc1Sc1ccnc(N)c1Cl
Second: C[C@@H](N)C(=O)N1CCN(c2cnc(Sc3ccnc(N)c3Cl)c(N)n2)CC1
The inhibition of the first is lower: 14.3% for the first, 43.8% for the second.

biological target: T2, Tyrosine-protein phosphatase non-receptor type 11 (Homo sapiens, UniProt Q06124); assay: Allosteric inhibition of N-terminal His-tagged human recombinant SHP2 extracted from Escherichia coli using DiFMUP as substrate preincubated with compound for 60 mins followed by substrate addition and measured after 30 mins by fluorescence based microplate reader analysis; settings: not given
T2 sequence (Q06124 whole entry): T1 sequence (whole entry)

Compared with `CC1(N)CCN(c2cnc(Sc3cccc(NC(=O)c4cnccn4)c3Cl)cn2)CC1`, `CC1(N)CCN(c2cnc(Sc3cccc(NC(=O)c4ccccn4)c3Cl)cn2)CC1` is 2.6-fold lower in IC50: 77 nM for the first, 29.4 nM for the second.

`CC1(N)CCN(c2cnc(Sc3cccc(NC(=O)c4cc(Cl)ccn4)c3Cl)cn2)CC1` and `CC1(N)CCN(c2cnc(Sc3cccc(NC(=O)c4ccc(Cl)cn4)c3Cl)cn2)CC1` are within 1.5-fold of each other in IC50: 219 nM for the first, 218 nM for the second.

First: CC1(N)CCN(c2cnc(Sc3cccc(NC(=O)c4cnccc4O)c3Cl)cn2)CC1
Second: CC1(N)CCN(c2cnc(Sc3cccc(NC(=O)c4cnccc4Cl)c3Cl)cn2)CC1
The IC50 of the first is 20-fold lower: 6.4 nM for the first, 128 nM for the second. The first is the more potent here.

Going from `CC1(N)CCN(c2cnc(Sc3cccc(NC(=O)c4ncccc4Br)c3Cl)cn2)CC1` to `CC1(N)CCN(c2cnc(Sc3cccc(NC(=O)c4ncccc4O)c3Cl)cn2)CC1`, the IC50 falls from 52.8 nM to 6.6 nM (8-fold). The second is the more potent here.

First: C[C@@H]1OCC2(CCN(c3cnc(Sc4cccc(NC(=O)c5ncccc5Cl)c4Cl)cn3)CC2)[C@@H]1N
Second: C[C@@H]1OCC2(CCN(c3cnc(Sc4cccc(NC(=O)c5ncccc5O)c4Cl)cn3)CC2)[C@@H]1N
The IC50 of the first is 1.7-fold higher: 1.03 nM for the first, 0.59 nM for the second.

`C[C@@H]1OCC2(CCN(c3cnc(Sc4cccc(NC(=O)c5cccnc5O)c4Cl)cn3)CC2)[C@@H]1N` and `C[C@@H]1OCC2(CCN(c3cnc(Sc4cccc(NC(=O)c5cnccc5O)c4Cl)cn3)CC2)[C@@H]1N` are within 1.5-fold of each other in IC50: 0.13 nM for the first, 0.17 nM for the second.

First: CC1(N)CCN(c2cnc(Sc3cccc(NC(=O)c4ncccc4Cl)c3Cl)cn2)CC1
Second: Cc1cccnc1C(=O)Nc1cccc(Sc2cnc(N3CCC(C)(N)CC3)cn2)c1Cl
The IC50 of the first is 52-fold lower: 1.7 nM for the first, 89.1 nM for the second.

Going from `CC1(N)CCN(c2cnc(Sc3cccc(NC(=O)c4cccnc4O)c3Cl)cn2)CC1` to `CC1(N)CCN(c2cnc(Sc3cccc(NC(=O)c4cccnc4Cl)c3Cl)cn2)CC1`, the IC50 rises from 11.3 nM to 365 nM (32-fold).

Compared with `CC1(N)CCN(c2cnc(Sc3cccc(NC(=O)c4ncccc4C(F)(F)F)c3Cl)cn2)CC1`, `CC1(N)CCN(c2cnc(Sc3cccc(NC(=O)c4ncccc4F)c3Cl)cn2)CC1` is 2.7-fold lower in IC50: 88.6 nM for the first, 32.3 nM for the second. The second is the more potent here.

Going from `CC1(N)CCN(c2cnc(Sc3cccc(NC(=O)c4nccs4)c3Cl)cn2)CC1` to `CC1(N)CCN(c2cnc(Sc3cccc(NC(=O)c4cccs4)c3Cl)cn2)CC1`, the IC50 rises from 51.9 nM to 119 nM (2.3-fold).

`CC1(N)CCN(c2cnc(Sc3cccc(NC(=O)c4ccncc4Cl)c3Cl)cn2)CC1` and `CC1(N)CCN(c2cnc(Sc3cccc(NC(=O)c4cccc(Cl)n4)c3Cl)cn2)CC1` are within 1.5-fold of each other in IC50: 147 nM for the first, 175 nM for the second.

Compared with `CC1(N)CCN(c2cnc(Sc3cccc(NC(=O)C4CCCCC4)c3Cl)cn2)CC1`, `CC1(N)CCN(c2cnc(Sc3cccc(NC(=O)c4ccco4)c3Cl)cn2)CC1` is 1.5-fold lower in IC50: 174 nM for the first, 113 nM for the second.

First: CC1(N)CCN(c2cnc(Sc3cccc(NC(=O)c4ncccn4)c3Cl)cn2)CC1
Second: CC1(N)CCN(c2cnc(Sc3cccc(NC(=O)c4ccccc4)c3Cl)cn2)CC1
The IC50 of the first is 2.3-fold lower: 30.1 nM for the first, 67.8 nM for the second.

First: Nc1nc(N2CCN(C(=O)C3(N)CCCC3)CC2)cnc1Sc1ccnc(N)c1Cl
Second: CC1(N)CCN(c2cnc(Sc3cccc(N)c3Cl)cn2)CC1
The IC50 of the first is 15-fold higher: 530 nM for the first, 36.2 nM for the second.

Going from `N[C@@H]1c2ccccc2CC12CCN(c1cnc(Sc3cccc(NC(=O)c4cccnc4O)c3Cl)cn1)CC2` to `N[C@@H]1c2ccccc2CC12CCN(c1cnc(Sc3cccc(NC(=O)c4ncccc4O)c3Cl)cn1)CC2`, the IC50 falls from 1.87 nM to 0.6 nM (3.1-fold). The second is the more potent here.

First: CC1(N)CCN(c2cnc(Sc3cccc(NC(=O)c4cccc5ccccc45)c3Cl)cn2)CC1
Second: CC1(N)CCN(c2cnc(Sc3cccc(NC(=O)Cc4ccccc4)c3Cl)cn2)CC1
The IC50 of the first is 6.7-fold higher: 332 nM for the first, 49.8 nM for the second.

Compared with `CC1(N)CCN(c2cnc(Sc3ccc(NC(=O)c4ccccc4)cc3Cl)cn2)CC1`, `CC1(N)CCN(c2cnc(Sc3cccc(NC(=O)/C=C/c4ccccc4)c3Cl)cn2)CC1` is 7.5-fold lower in IC50: 296 nM for the first, 39.6 nM for the second.

Molecule `N[C@@H]1c2ccccc2CC12CCN(c1cnc(Sc3cccc(NC(=O)c4ncccc4Cl)c3Cl)cn1)CC2` has an IC50 of 1.08 nM.

system: MV4-11; assay: Antiproliferative activity against human MV4-11 cells assessed as inhibition of cell proliferation incubated for 72 hrs by CCK-8 assay; format: functional, cell-based; settings: Homo sapiens, MV4-11, 72 h

First: C[C@@H]1OCC2(CCN(c3cnc(Sc4cccc(NC(=O)c5cccnc5O)c4Cl)cn3)CC2)[C@@H]1N
Second: C[C@@H]1OCC2(CCN(c3cnc(Sc4cccc(NC(=O)c5cnccc5O)c4Cl)cn3)CC2)[C@@H]1N
The IC50 of the first is 2.7-fold higher: 45.5 nM for the first, 16.6 nM for the second.
